From patent US20240009331A1, “UROKINASE PLASMINOGEN ACTIVATOR RECEPTOR TARGETED RADIOLABELED PEPTIDE CONJUGATES” (CURASIGHT A/S, priority 2020, published 2024)

Molecular target: uPAR H47C-N259C
Experiment: SPR inhibition of uPAR binding to immobilized uPA (uPAR H47C-N259C)
Set-up: species or system human
Conditions: inhibition of uPAR binding to immobilized prouPA S356A
Method: Covalent immobilization of purified human prouPA^S356A was accomplished by injecting 12.5 μg/ml protein dissolved in 10 mM sodium acetate (pH 5.0) over a CM5 chip that had been pre-activated with NHS/EDC (N-ethyl-N′[3-[…])propyl]-carbodiimide), aiming at a surface density of >5000 resonance units (RU) corresponding to 100 fmols/mm^2. After coupling the sensor-chip was deactivated with 1 M ethanolamine. Binding of purified human uPAR as analyte was measured from 4 nM to 0.25 nM at using 10 mM HEPES, 150 mM NaCl, 3 mM EDTA (pH 7.4) containing (v/v) surfactant P20 as running buffer at a flow rate of […]. In between cycles the sensor-chip was regenerated by two consecutive 10-μl injections of 0.1 M acetic acid/HCI (pH 2.5) in 0.5 M NaCl. The inhibition of 3-fold dilutions of the compounds in question was measured for 4 nM uPAR with identical running conditions. All experiments were performed on a BiacoreT200 instrument.
For each inhibition peptide inhibition profile of uPAR binding to immobilized uPA there has been run a preceding standard curve and all calculations are based on the that standard curve.

`CC(C)C[C@H](NC(=O)[C@H](Cc1ccc(O)cc1)NC(=O)[C@@H](CCCNC(=N)N)NC(=O)[C@@H](CO)NC(=O)[C@H](Cc1ccccc1)NC(=O)[C@H](CC1CCCCC1)NC(=O)[C@@H](N)CC(=O)O)C(=O)N[C@@H](Cc1c[nH]c2ccccc12)C(=O)N[C@@H](CO)C(=O)O` [AE105, DChaFsrYLWS-OH] showed an IC50 of 4.5 ± 1.5 µM.
